From patent US9850247B2 (Almac Discovery Limited, priority 2013, dated 2017)
Where two headings read alike, the source gives them in different places. One block for each compound: values may come before it.

Tests used:
[1] = test system: phospho-cdc2 (Tyr15) in HT-29 cells; assay: Effect on Cdc2 phosphorylation at Tyr15, Cell-Based ELISA Base Kit (Method 3); conditions: eight hours incubation, normalized to total cdc2, read-out: HT29 pCDC2 method 3
Experimental: Method 3: Determining the Effect of Compounds on the Cdc2 phosphorylation at Tyr15, using a Cell-Based ELISA Base Kit (R&D Systems, KCB001)
The colorectal cancer cell line, HT-29 was purchased from the ATCC and maintained in McCoy's 5 A medium (Gibco®, Life technologies) supplemented with 10% Foetal Calf Serum (FCS).
The cells were trypsinised and counted, 100 μL of 8000 cells was seeded into each well of a clear-bottom black 96-well microplate and incubated overnight to allow adherence to the surface, at 37° C. and 5% CO2 in a cell culture incubator.
Test compounds were formulated in DMSO and diluted in cell culture medium supplemented with FCS. Grow medium was removed from cells and medium containing compounds dilutions was added to each well. The plate was returned to the incubator for an additional eight hours of incubation at 37° C. and 5% CO2.
Post incubation cells were fixed by replacing the compounds supplemented medium with 100 μL of 4% formaldehyde in 1× phosphate buffered saline (PBS), for 20 minutes at room temperature. Formaldehyde solution was removed and cells were washed three times with PBS. The Cell-Based ELISA assay (R&D Systems) was carried out immediately after cell fixation or the plate was sealed and fixed cells were stored in PBS at 4° C. until required (no more than two weeks).
To continue the assay, PBS was removed and cells were washed 3 times for 5 minutes with 200 μL of 1× wash buffer. Each wash step was carried out with gentle shaking. Following washes, 100 μL of 0.6% H2O2 in 1× wash buffer (quenching buffer) was added, plate was sealed and incubated for 20 minutes at room temperature. Post incubation cells were washes 3 times for 5 minutes with 200 μL of 1× wash buffer, with gentle shaking. 100 μL of blocking buffer was added to each well, the plate was re-sealed and incubated at room temperature for 1 h.
After blocking, cells were washed as described above. A primary antibody mixture was prepared by mixing the two primary antibodies, a rabbit monoclonal antibody for phospho-cdc2 (Tyr15) (Cell Signaling, #4539) and mouse monoclonal antibody for total cdc2 p34 (Santa Cruz Biotechnology, sc-54), diluted 1:25 and 1:50 in blocking buffer, respectively. 60 μL of primary antibody mixture was added to each well, the plate was sealed and incubated overnight at 4° C.
The primary antibodies were removed and cells were washed as previously described. 100 μL of secondary antibody mixture, containing horseradish-peroxidase (HRP)-conjugated goat anti-rabbit IgG and alkaline phosphatase (AP)-conjugated goat anti-mouse IgG, diluted 1:100 in blocking buffer, was added to each test well. The plate was re-sealed and incubated for 2 hours at room temperature.
The secondary antibodies were removed and cells washed 2 times with wash buffer, followed by 2 washes with PBS. Each wash step was carried out for 5 minutes with gentle shaking. PBS was removed and 75 μL of fluorogenic substrate for HRP (substrate F1) added to each well. The plate was sealed and incubated for 1 h at room temperature, in the dark. 75 μL of fluorogenic substrate for AP (substrate F2) was added directly to each well, plate re-sealed and incubated for additional 40 minutes at room temperature, protected from direct light.
Following incubation fluorescence from each well was read at 600 nm (signal from substrate 1, phosphorylated protein) and then at 450 nm (signal from substrate 2, total protein).
The percentage of phospho-cdc2 was calculated compared to DMSO control, normalized to the total cdc2 and plotted versus the concentration of inhibitor, using GraphPad Prism. Data was fitted using a non-linear regression analysis and EC50 values generated.

[2] = CLint estimates using human liver microsomes (Method 4); type: in vitro ADME; conditions: pH 7.4, 1 μM compound, read-out: Mics - CLint (HLM CLint)
Summary of the method: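 Compound at 1 μM (0.1% DMSO) incubated with human liver microsomes (0.5 mg protein/mL) in 0.1 M phosphate pH 7.4 at 37 °C, started with 1 mM NADPH. Samples taken 2–50 min, quenched in methanol, measured by LC/MS/MS (MRM). Half-life and CLint derived from the slope of ln peak area versus time.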

Wee-1 kinase = target: T1, Wee-1 kinase (Homo sapiens, UniProt P30291); assay: Measurement of Wee-1 kinase activity (ADP-Glo luminescent kit); type: biochemical
T1 construct: purchased Invitrogen PV3817
T1 sequence (P30291 whole entry): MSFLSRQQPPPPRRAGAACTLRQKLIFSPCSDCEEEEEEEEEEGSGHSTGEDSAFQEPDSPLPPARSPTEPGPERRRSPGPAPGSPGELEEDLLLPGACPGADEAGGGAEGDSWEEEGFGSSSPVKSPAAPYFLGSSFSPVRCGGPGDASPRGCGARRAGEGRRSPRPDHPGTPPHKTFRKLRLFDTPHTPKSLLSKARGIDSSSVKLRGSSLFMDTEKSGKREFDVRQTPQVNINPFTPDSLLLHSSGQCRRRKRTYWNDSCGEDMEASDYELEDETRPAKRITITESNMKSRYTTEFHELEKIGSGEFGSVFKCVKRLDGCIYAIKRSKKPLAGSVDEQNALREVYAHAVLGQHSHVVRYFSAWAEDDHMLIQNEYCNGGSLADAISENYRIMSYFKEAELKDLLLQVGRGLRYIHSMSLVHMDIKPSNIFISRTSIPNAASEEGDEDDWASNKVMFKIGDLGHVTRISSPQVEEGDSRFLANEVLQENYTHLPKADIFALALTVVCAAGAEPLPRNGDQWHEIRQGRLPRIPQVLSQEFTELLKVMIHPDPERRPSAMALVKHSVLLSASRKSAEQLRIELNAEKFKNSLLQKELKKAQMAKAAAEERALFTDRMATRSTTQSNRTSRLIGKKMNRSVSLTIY
Summary of the method: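 Activated Wee-1 was pre-incubated 30 min at RT with compound in 40 mM Tris-HCl, 20 mM MgCl2, 0.1 mg/mL BSA and 2 mM DTT. The reaction was started with an aliquot of 2.0 μg/mL poly(Lys,Tyr 4:1) plus 30 μM ATP and run 1 h at RT. ADP-Glo luminescence gave IC50 by non-linear fit.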

microsomal CLint at 1 μM [2]: ≤ 15 µL/min/mg
IC50 (Wee-1 kinase): 0.01 to 0.1 µM
Compound: COC[C@@H]1CN(c2ccc(Nc3ncc4c(n3)N(C)CN(c3c(Cl)cccc3Cl)C4=O)cc2)CCN1 [Example 61, (S)-3-(2,6-dichlorophenyl)-7-((4-(3-(methoxymethyl)piperazin-1-yl)phenyl)amino)-1-methyl-2,3-dihydropyrimido[4,5-d]pyrimidin-4(1H)-one]
EC50 ([1]; Homo sapiens, HT-29, 8 h): 0.1 to 1 µM

microsomal CLint at 1 μM [2]: 15 to 50 µL/min/mg
IC50 (Wee-1 kinase): 0.01 to 0.1 µM
Compound: CN1CCN(c2ccc(Nc3ncc4c(n3)N(C)CN(c3c(Cl)cccc3Cl)C4=O)cc2)[C@H](CO)C1 [Example 128, (S)-3-(2,6-dichlorophenyl)-7-((4-(2-(hydroxymethyl)-4-methylpiperazin-1-yl)phenyl)amino)-1-methyl-2,3-dihydropyrimido[4,5-d]pyrimidin-4(1H)-one]
EC50 ([1]; Homo sapiens, HT-29, 8 h): 0.1 to 1 µM

microsomal CLint at 1 μM [2]: ≤ 15 µL/min/mg
IC50 (Wee-1 kinase): 0.01 to 0.1 µM
Compound: COC[C@H]1CN(c2ccc(Nc3ncc4c(n3)N(C)CN(c3c(F)cccc3Cl)C4=O)cc2)CCN1 [Example 126, (R)-3-(2-chloro-6-fluorophenyl)-7-((4-(3-(methoxymethyl)piperazin-1-yl)phenyl)amino)-1-methyl-2,3-dihydropyrimido[4,5-d]pyrimidin-4(1H)-one]
EC50 ([1]; Homo sapiens, HT-29, 8 h): ≥ 1 µM

microsomal CLint at 1 μM [2]: ≤ 15 µL/min/mg
IC50 (Wee-1 kinase): ≤ 0.01 µM
Compound: CN1CCC(c2ccc(Nc3ncc4c(n3)N(C)CN(c3c(Cl)cccc3Cl)C4=O)cc2CO)CC1 [Example 165, 3-(2,6-dichlorophenyl)-7-((3-(hydroxymethyl)-4-(1-methylpiperidin-4-yl)phenyl)amino)-1-methyl-2,3-dihydropyrimido[4,5-d]pyrimidin-4(1H)-one]
EC50 ([1]; Homo sapiens, HT-29, 8 h): 0.1 to 1 µM

microsomal CLint at 1 μM [2]: ≥ 50 µL/min/mg
IC50 (Wee-1 kinase): ≤ 0.01 µM
Compound: CN(C)CC(=O)N1CCN(c2ccc(Nc3ncc4c(n3)N(C)CN(c3c(Cl)cccc3Cl)C4=O)cc2)CC1 [Example 123, 3-(2,6-dichlorophenyl)-7-((4-(4-(2-(dimethylamino)acetyl)piperazin-1-yl)phenyl)amino)-1-methyl-2,3-dihydropyrimido[4,5-d]pyrimidin-4(1H)-one]
EC50 ([1]; Homo sapiens, HT-29, 8 h): 0.1 to 1 µM

microsomal CLint at 1 μM [2]: ≤ 15 µL/min/mg
IC50 (Wee-1 kinase): ≤ 0.01 µM
Compound: CN1CCC(c2ccc(Nc3ncc4c(n3)N(C)CN(c3c(Cl)cccc3Cl)C4=O)cc2)CC1 [Example 95, 3-(2,6-dichlorophenyl)-1-methyl-7-((4-(1-methylpiperidin-4-yl)phenyl)amino)-2,3-dihydropyrimido[4,5-d]pyrimidin-4(1H)-one]
EC50 ([1]; Homo sapiens, HT-29, 8 h): 0.1 to 1 µM

microsomal CLint at 1 μM [2]: ≤ 15 µL/min/mg
IC50 (Wee-1 kinase): ≤ 0.01 µM
Compound: CNCc1cc(Nc2ncc3c(n2)N(C)CN(c2c(Cl)cccc2Cl)C3=O)ccc1N1CCN(C(C)=O)CC1 [Example 143, 7-((4-(4-acetylpiperazin-1-yl)-3-((methylamino)methyl)phenyl)amino)-3-(2,6-dichlorophenyl)-1-methyl-2,3-dihydropyrimido[4,5-d]pyrimidin-4(1H)-one]
EC50 ([1]; Homo sapiens, HT-29, 8 h): ≥ 1 µM

microsomal CLint at 1 μM [2]: ≤ 15 µL/min/mg
IC50 (Wee-1 kinase): ≤ 0.01 µM
Compound: CNCC(=O)N1CCN(c2ccc(Nc3ncc4c(n3)N(C)CN(c3c(Cl)cccc3Cl)C4=O)cc2)CC1 [Example 124, 3-(2,6-dichlorophenyl)-1-methyl-7-((4-(4-(2-(methylamino)acetyl)piperazin-1-yl)phenyl)amino)-2,3-dihydropyrimido[4,5-d]pyrimidin-4(1H)-one]
EC50 ([1]; Homo sapiens, HT-29, 8 h): 0.1 to 1 µM

IC50 (Wee-1 kinase): ≤ 0.01 µM
Compound: CN1CC=C(c2ccc(Nc3ncc4c(n3)N(C)CN(c3c(Cl)cccc3Cl)C4=O)cc2CO)CC1 [Example 180, 3-(2,6-dichlorophenyl)-7-((3-(hydroxymethyl)-4-(1-methyl-1,2,3,6-tetrahydropyridin-4-yl)phenyl)amino)-1-methyl-2,3-dihydropyrimido[4,5-d]pyrimidin-4(1H)-one]
EC50 ([1]; Homo sapiens, HT-29, 8 h): 0.1 to 1 µM

Second part, the compound before the results:

Compound: CN(C)Cc1cc(Nc2ncc3c(n2)N(C)CN(c2c(Cl)cccc2Cl)C3=O)ccc1N1CCC(F)(F)CC1 [Example 150, 3-(2,6-dichlorophenyl)-7-((4-(4,4-difluoropiperidin-1-yl)-3-((dimethylamino)methyl)phenyl)amino)-1-methyl-2,3-dihydropyrimido[4,5-d]pyrimidin-4(1H)-one]
EC50 ([1]; Homo sapiens, HT-29, 8 h): 0.1 to 1 µM
microsomal CLint at 1 μM [2]: ≥ 50 µL/min/mg
IC50 (Wee-1 kinase): 0.01 to 0.1 µM

Compound: Cc1cc(Nc2ncc3c(n2)N(C)CN(c2c(Cl)cccc2Cl)C3=O)ccc1N1C[C@@H]2C[C@H]1CN2C [Example 77, 3-(2,6-dichlorophenyl)-1-methyl-7-((3-methyl-4-((1S,4S)-5-methyl-2,5-diazabicyclo[2.2.1]heptan-2-yl)phenyl)amino)-2,3-dihydropyrimido[4,5-d]pyrimidin-4(1H)-one]
EC50 ([1]; Homo sapiens, HT-29, 8 h): 0.1 to 1 µM
microsomal CLint at 1 μM [2]: 15 to 50 µL/min/mg
IC50 (Wee-1 kinase): ≤ 0.01 µM

Compound: Cc1cc(Nc2ncc3c(n2)N(C)CN(c2c(F)cccc2Cl)C3=O)ccc1N1CCNCC1 [Example 55, 3-(2-chloro-6-fluorophenyl)-1-methyl-7-((3-methyl-4-(piperazin-1-yl)phenyl)amino)-2,3-dihydropyrimido[4,5-d]pyrimidin-4(1H)-one]
EC50 ([1]; Homo sapiens, HT-29, 8 h): 0.1 to 1 µM
microsomal CLint at 1 μM [2]: ≤ 15 µL/min/mg
IC50 (Wee-1 kinase): ≤ 0.01 µM

Compound: CN1CN(c2c(Cl)cccc2Cl)C(=O)c2cnc(Nc3ccc(N4CCNCC4)c(CNCC(F)(F)F)c3)nc21 [Example 141, 3-(2,6-dichlorophenyl)-1-methyl-7-((4-(piperazin-1-yl)-3-(((2,2,2-trifluoroethyl)amino)methyl)phenyl)amino)-2,3-dihydropyrimido[4,5-d]pyrimidin-4(1H)-one]
EC50 ([1]; Homo sapiens, HT-29, 8 h): ≥ 1 µM
microsomal CLint at 1 μM [2]: ≤ 15 µL/min/mg
IC50 (Wee-1 kinase): ≤ 0.01 µM

Compound: CN1CN(c2c(Cl)cccc2Cl)C(=O)c2cnc(Nc3ccc(C4=CCNCC4)c(CO)c3)nc21 [Example 179, 3-(2,6-dichlorophenyl)-7-((3-(hydroxymethyl)-4-(1,2,3,6-tetrahydropyridin-4-yl)phenyl)amino)-1-methyl-2,3-dihydropyrimido[4,5-d]pyrimidin-4(1H)-one]
EC50 ([1]; Homo sapiens, HT-29, 8 h): ≥ 1 µM
IC50 (Wee-1 kinase): ≤ 0.01 µM

Compound: CN(C)CC(O)c1cccc(Nc2ncc3c(n2)N(C)CN(c2c(Cl)cccc2Cl)C3=O)c1 (stereo not drawn) [Example 172, 3-(2,6-dichlorophenyl)-7-((3-(2-(dimethylamino)-1-hydroxyethyl)phenyl)amino)-1-methyl-2,3-dihydropyrimido[4,5-d]pyrimidin-4(1H)-one]
EC50 ([1]; Homo sapiens, HT-29, 8 h): ≥ 1 µM
IC50 (Wee-1 kinase): 0.01 to 0.1 µM

Compound: CN1CN(c2c(Cl)cccc2Cl)C(=O)c2cnc(Nc3ccc4c(c3)C3CCC4N3)nc21 (stereo not drawn) [Example 166, 3-(2,6-dichlorophenyl)-1-methyl-7-((1,2,3,4-tetrahydro-1,4-epiminonaphthalen-6-yl)amino)-2,3-dihydropyrimido[4,5-d]pyrimidin-4(1H)-one]
EC50 ([1]; Homo sapiens, HT-29, 8 h): ≥ 1 µM
IC50 (Wee-1 kinase): 0.01 to 0.1 µM

Compound: COC[C@H]1CN(c2ccc(Nc3ncc4c(n3)N(C)CN(c3c(Cl)cccc3Cl)C4=O)cc2C(O)C(F)(F)F)CCN1 (single isomer, unassigned) [Example 184]
EC50 [1]: ≥ 1 µM
IC50 (Wee-1 kinase): ≤ 0.01 µM

Compound: COC[C@H]1CN(c2ccc(Nc3ncc4c(n3)N(C)CN(c3c(Cl)cccc3Cl)C4=O)cc2C(O)C(F)(F)F)CCN1 (single isomer, unassigned) [Example 185]
EC50 [1]: 0.1 to 1 µM
IC50 (Wee-1 kinase): ≤ 0.01 µM
